# Test results reported in paper doi:10.1101/2024.03.08.584059, “AllTheBacteria: a community resource empowers biology and discovers novel peptide antibiotics” (bioRxiv, 2026).
# Ends that are not written are not given here.
# Key:
# A. baumannii ATCC 19606 [1] = assay: microbe, parasite or virus in culture; conditions: Acinetobacter baumannii, ATCC19606, 24 h, read-out: Minimal Inhibitory Concentration, A. baumannii ATCC 19606 (-)
# Method: (§1) Figure 4. […] Briefly, 10[5] bacterial cells were incubated with serially diluted peptides (0–64 μmol L^−1) at 37 °C. Bacterial growth was assessed by measuring the optical density at 600 nm in a microplate reader one day post-treatment.
# [2] = system: A. baumannii ATCC BAA-1605; assay: microbe, parasite or virus in culture; conditions: Acinetobacter baumannii, ATCCBAA1605, 24 h, read-out: Minimal Inhibitory Concentration, A. baumannii ATCC BAA-1605 (-) - CGTPACCIMRA
# Method: as §1
# E. cloacae ATCC 13047 = assay: microbe, parasite or virus in culture; conditions: Enterobacter cloacae, ATCC13047, 24 h, read-out: Minimal Inhibitory Concentration, E. cloacae ATCC 13047 (-)
# Method: as §1
# E. coli ATCC 11775 = assay: microbe, parasite or virus in culture; conditions: Escherichia coli, ATCC11775, 24 h, read-out: Minimal Inhibitory Concentration, E. coli ATCC 11775 (-)
# Method: as §1
# E. coli ATCC BAA-3170 = assay: microbe, parasite or virus in culture; conditions: Escherichia coli, ATCCBAA3170, 24 h, read-out: Minimal Inhibitory Concentration, E. coli ATCC BAA-3170 (-) - CRE
# Method: as §1
# E. coli K-12 BW25113 = assay: microbe, parasite or virus in culture; conditions: Escherichia coli, BW25113, 24 h, read-out: Minimal Inhibitory Concentration, E. coli K-12 BW25113 (-)
# Method: as §1
# K. pneumoniae ATCC 13883 = assay: microbe, parasite or virus in culture; conditions: Klebsiella pneumoniae, ATCC13883, 24 h, read-out: Minimal Inhibitory Concentration, K. pneumoniae ATCC 13883 (-)
# Method: as §1
# [3] = system: K. pneumoniae ATCC BAA-2342; assay: microbe, parasite or virus in culture; conditions: Klebsiella pneumoniae, ATCCBAA2342, 24 h, read-out: Minimal Inhibitory Concentration, K. pneumoniae ATCC BAA-2342 (-) - EIRK
# Method: as §1
# P. aeruginosa PA14 = assay: microbe, parasite or virus in culture; conditions: Pseudomonas aeruginosa, PA14, 24 h, read-out: Minimal Inhibitory Concentration, P. aeruginosa PA14 (-)
# Method: as §1
# P. aeruginosa PAO1 = assay: microbe, parasite or virus in culture; conditions: Pseudomonas aeruginosa, PAO1, 24 h, read-out: Minimal Inhibitory Concentration, P. aeruginosa PAO1 (-)
# Method: as §1
# S. aureus ATCC 12600 = assay: microbe, parasite or virus in culture; conditions: Staphylococcus aureus, ATCC12600, 24 h, read-out: Minimal Inhibitory Concentration, S. aureus ATCC 12600 (+)
# Method: as §1
# [4] = system: S. aureus ATCC BAA-1556 (MRSA); assay: microbe, parasite or virus in culture; conditions: Staphylococcus aureus, ATCCBAA1556|MRSA, 24 h, read-out: Minimal Inhibitory Concentration, S. aureus ATCC BAA-1556 - MRSA (+)
# Method: as §1
# S. enterica ATCC 9150 = assay: microbe, parasite or virus in culture; conditions: Salmonella enterica, ATCC9150, 24 h, read-out: Minimal Inhibitory Concentration, S. enterica ATCC 9150 (-)
# Method: as §1
# [5] = system: S. enterica Typhimurium ATCC 700720; assay: microbe, parasite or virus in culture; conditions: Salmonella enterica, ATCC700720|TYPHIMURIUM, 24 h, read-out: Minimal Inhibitory Concentration, S. enterica Typhimurium ATCC 700720
# Method: as §1
# E. coli AIC221 = assay: MIC, broth microdilution; format: cell-based; conditions: Escherichia coli, AIC221, 24 h, read-out: Minimal Inhibitory Concentration, E. coli AIC221 (-)
# Method: Figure 4. Antimicrobial activity of APEX-predicted AllTheBacteria peptides. Heat map displaying the antimicrobial activities (μmol L^−1) of ATB peptides (rows) against 20 clinically relevant pathogens (columns) , including antibiotic-resistant strains. Briefly, 10[5] bacterial cells were incubated with serially diluted peptides (0–64 μmol L^−1) at 37 °C. Bacterial growth was assessed by measuring the optical density at 600 nm in a microplate reader one day post-treatment.
# E. coli AIC222 = assay: microbe, parasite or virus in culture; format: cell-based; conditions: Escherichia coli, AIC222, 24 h, read-out: Minimal Inhibitory Concentration, E. coli AIC222 - CRE (-)
# Method: as §1
# B. subtilis ATCC 23857 = assay: MIC, broth microdilution; format: cell-based; conditions: Bacillus subtilis, ATCC23857, 24 h, Fig. 4 heat map, LB, 0–64 μmol L^−1, 37 °C, one day, OD600, mode of replicates, read-out: Minimal Inhibitory Concentration, B. subtilis ATCC 23857 (+)
# Method: as §1
# [6] = system: E. faecalis ATCC 700802 (VRE); assay: MIC, broth microdilution; format: cell-based; conditions: Enterococcus faecalis, 24 h, Fig. 4 heat map, vancomycin-resistant, LB, 0–64 μmol L^−1, 37 °C, one day, OD600, mode of replicates, read-out: Minimal Inhibitory Concentration, E. faecalis ATCC 700802 - VRE (+)
# Method: as §1
# [7] = system: 20 clinically relevant Gram-negative and Gram-positive bacterial strains; assay: Antibacterial profiling across the panel; format: cell-based; conditions: in words; 20-strain MIC panel
# Text: We first compared the predicted AllTheBacteria (here abbreviated ATB) peptides with antimicrobial peptides curated in widely used databases (see Supp. Note 3, Supp. Figs 10-13). ATB peptides were enriched in basic residues, particularly lysine and arginine, and many also contained hydrophobic or aromatic residues, including leucine, isoleucine, and tryptophan. These features are consistent with electrostatic engagement of bacterial envelopes and potential membrane interaction. From this prioritized pool, we selected 24 peptides (Supp. Table 1) for chemical synthesis and experimental validation. The selected panel included highly cationic low-complexity sequences, mixed hydrophobic–cationic architectures and tryptophan-rich motifs, allowing us to test whether distinct classes of ATB-derived encrypted peptides translate into antibacterial activity. The 24 synthesized peptides were profiled against 20 clinically relevant Gram-negative and Gram-positive bacterial strains, including antibiotic-resistant ones (Fig. 4). Antibacterial activity was most pronounced against Gram-negative species, including Acinetobacter baumannii, Escherichia coli, Enterobacter cloacae, Klebsiella pneumoniae, and Pseudomonas aeruginosa.
# Figure 4. […] Bacterial growth was assessed by measuring the optical density at 600 nm in a microplate reader one day post-treatment.
# [8] = system: human embryonic kidney (HEK293T) cells; conditions: 24 h
# Method: The cells were cultured in high-glucose Dulbecco’s modified Eagle’s medium supplemented with 1% penicillin and streptomycin (antibiotics) and 10% fetal bovine serum and grown at 37 °C in a humidified atmosphere containing 5% CO2.
# One day prior to the experiment, 100 μL aliquots of human embryonic kidney (HEK293T) cells, at a concentration of 50,000 cells per mL, were seeded into each well of 96-well plates (5,000 cells per well). Following cell attachment, the HEK293T cells were treated with increasing concentrations of peptides (ranging from 8 to 128 μmol L^−1) and incubated for 24 h. After the exposure period, cytotoxicity was assessed using the 3-(4,5-dimethylthiazol-2-yl)-2,5-diphenyltetrazolium bromide (MTT) assay. Specifically, the MTT reagent was prepared at a concentration of 0.5 mg mL^−1 in phenol red-free medium and used to replace the peptide-containing supernatants (100 μL per well). The plates were then incubated for 4 h at 37 °C in a humidified atmosphere with 5% CO2, facilitating the formation of insoluble formazan crystals. These crystals were subsequently dissolved in 0.04 mol L^−1 hydrochloric acid prepared in anhydrous isopropanol. Absorbance was measured at 570 nm using a spectrophotometer to quantify cell viability. All experiments were conducted in triplicate (three biological replicates).
# To evaluate the safety profile of the ATB peptides, we measured their cytotoxicity against human embryonic kidney (HEK293T) cells using a 3-(4,5-dimethylthiazol-2-yl)-2,5-diphenyltetrazolium bromide (MTT) viability assay and determined half-maximal cytotoxic concentrations (CC50). […]
# index as the ratio CC50 (HEK293T) / MIC against A. baumannii ATCC 19606.
# A. baumannii ATCC 19606 [9] = assay: Skin abscess infection mouse model; format: in vivo, Acinetobacter baumannii; conditions: CD-1 mice; for reduction of bacterial burden relative to untreated controls: single topical dose at 10×MIC
# Method: (§2) Figure 5. Anti-infective activity of a lead ATB peptide in a murine infection model. […] The limit of detection (LOD) for the CFU quantification is log10 CFU = 2. Bacterial burdens are shown as violin plots with individual data points overlaid; each point represents one animal. The horizontal line within each violin indicates the mean, and violin width reflects the distribution of values within each group. Statistical comparisons were performed separately for each time point using ordinary one-way ANOVA followed by Dunnett’s two-sided multiple comparisons test versus the control group. Exact p-values are shown above the indicated comparisons. (Panel a created in BioRender.)
# (§3) The back of six-week-old female CD-1 mice under anesthesia were shaved and injured with a superficial linear skin abrasion made with a needle. An aliquot of A. baumannii ATCC 19606 (1.1×10^6 CFU mL^−1; […]) previously grown in LB medium until 0.5 OD mL^−1 (optical value at 600 nm) and then washed twice with sterile PBS (pH 7.4, 9,391 ģ for 3 min) was added to the scratched area. […] Two- and four-days post-infection, animals were euthanized, and a uniform excision of the scarified skin was excised, homogenized using a bead beater (25 Hz for 20 min), 10-fold serially diluted, and plated on McConkey agar plates for CFU quantification. The experiments were performed using six mice per group. Mice were single-housed to avoid cross-contamination and maintained under a 12-hour light/dark cycle at 22 °C with humidity controlled at 50%. The skin abscess infection mouse model was revised and approved by the University Laboratory Animal Resources (ULAR) from the University of Pennsylvania (Protocol 806763).
# In the mouse experiments, all the raw data were log10 transformed and the statistical significance was determined using one-way ANOVA followed by Dunnett’s test. All the p values are shown for each of the groups, all groups were compared to the untreated control group. […] Statistical significance between different groups was calculated using the tests indicated in each figure legend. […]
# [10] = Mouse weight monitoring in skin abscess model; format: in vivo; conditions: CD-1 mice, 4 days total, single topical dose at 10×MIC, in words
# Method: as §2
# as §3, with “Mice were single-housed to avoid cross-contamination and maintained under a 12-hour light/dark cycle at 22 °C with humidity controlled at 50%. The skin abscess infection mouse model was revised and approved by the University Laboratory Animal Resources (ULAR) from the University of Pennsylvania (Protocol 806763).” left out
# E. coli isolates = conditions: strain not named
# Method: as §1
compound,measurement,setting,value
C[C@H]1COc2c(N3CCN(C)CC3)c(F)cc3c(=O)c(C(=O)O)cn1c23 [Levofloxacin],MIC,A. baumannii ATCC 19606 [1],0.3 µM
same,MIC,[2],64 µM
same,MIC,E. cloacae ATCC 13047,0.1 µM
same,MIC,E. coli ATCC 11775,0.1 µM
same,MIC,E. coli ATCC BAA-3170,0.1 µM
same,MIC,E. coli K-12 BW25113,0.1 µM
same,MIC,K. pneumoniae ATCC 13883,0.1 µM
same,MIC,[3],0.1 µM
same,MIC,P. aeruginosa PA14,0.5 µM
same,MIC,P. aeruginosa PAO1,4 µM
same,MIC,S. aureus ATCC 12600,4 µM
same,MIC,[4],4 µM
same,MIC,S. enterica ATCC 9150,0.1 µM
same,MIC,[5],0.5 µM
same,MIC,E. coli AIC221,0.1 µM
same,MIC,E. coli AIC222,0.1 µM
same,MIC,B. subtilis ATCC 23857,0.1 µM
same,MIC,[6],1 µM
MKKLKIKKLKIKKLKIKKLKIKNLKIKKLKIKNLKI-OH [ATB15],antibacterial activity across the panel,[7],limited measurable activity
same,half-maximal cytotoxic concentration (CC50),[8],9 to 12 µM
MKLWKIVRFLALSKGAKALRKKPVRKAAASFVKSYALWKYIRRK-OH [ATB20],time for which proliferation of the infection was inhibited after treatment,"A. baumannii ATCC 19606 [9]; single dose at 10xMIC post-infection, compared to untreated control",up to 4 days
same,reduction of bacterial burden relative to untreated controls,"A. baumannii ATCC 19606 [9]; day 4, n = 6",~ 1.5 log
same,reduction of bacterial burden relative to untreated controls,"A. baumannii ATCC 19606 [9]; two days after infection, n = 6",~ 2 log
same,mouse body weight,[10],remained stable
MRRRGWKVRLKRRRGWKVRLMRRRGWKVRLKRRRLVLPVWA-OH [ATB9],"MIC, E. coli",E. coli isolates,4 µM
